Some results are limits rather than exact numbers.

This is an account of results in paper doi:10.1101/2025.08.13.670122v1 (bioRxiv, 2025).

Data set [1] is described as follows: Plasma stability. The format is in vitro ADME. Conditions: male Sprague-Dawley rat plasma, 6 μL of 1 mM compound (10% DMSO) in 27 μL plasma, 37°C, 0-24 h, UPLC-MS, one-phase decay, mean ± SEM of at least three experiments, read-out: Plasmatic half-life t1/2 (±SEM). The protocol:
The degradation was quenched by adding 140 μL of 1% formic acid in an acetonitrile-ethanol (1:1) solution containing 0.25 mM of N,N-dimethylbenzamide (used as an internal standard). This mixture was initially transferred to an Impact Protein Precipitation filter plate (Phenomenex, California), the filtrates from which were subsequently collected in a second 96-well UPLC plate. Both plates were centrifuged at 500 g for 10 min while maintaining a temperature of 4°C. The filtrates were then diluted with 30 μL of distilled water and processed for analysis using an Acquity UPLC-MS system class H (using an Acquity UPLC protein BEH C18 column that measured 2.1 mm × 50 mm and had 1.7 μm particles with pores 130 Å in width). The peptide half-life, derived from the degradation curve, was calculated using the exponential one-phase decay function in GraphPad Prism 9. Degradation was estimated by comparing the mass spectrum at each point with those at the zero-minute mark. The data were presented as a mean ± SEM of at least three unique experiments, each performed in singlicate.

For data set [2], the target named is T1, endogenous AT1R (Rattus norvegicus, UniProt P25095).
T1 construct: expressing low levels of endogenous AT1R; endogenous in cells; host or cells: rat primary VSMC, passages 13-15
T1 sequence (P25095 1-359): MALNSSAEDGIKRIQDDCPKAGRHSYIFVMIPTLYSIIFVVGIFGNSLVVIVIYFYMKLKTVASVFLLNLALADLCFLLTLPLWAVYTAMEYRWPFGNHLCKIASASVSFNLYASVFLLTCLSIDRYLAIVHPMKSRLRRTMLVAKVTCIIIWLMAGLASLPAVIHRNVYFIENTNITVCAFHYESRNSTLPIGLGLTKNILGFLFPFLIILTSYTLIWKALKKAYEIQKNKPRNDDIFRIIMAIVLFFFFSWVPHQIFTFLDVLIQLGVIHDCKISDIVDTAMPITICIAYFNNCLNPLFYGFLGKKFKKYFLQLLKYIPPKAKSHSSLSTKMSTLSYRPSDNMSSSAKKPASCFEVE
The experiment in a line: PKC BRET sensor in rat primary VSMC with endogenous AT1R. The format is cell-based. Conditions: for Emax PKC in VSMCs (% AngII): PKC sensor, for 12 and TRV027 response at 10 μM; for EC50: adenoviral PKC BRET sensor, 1 min stimulation, mean ± SEM of at least three to five independent experiments, read-out: EC50 PKC in VSMCs. From the text: (§1) We next assessed the analogs’ ability to engage Gαq by assessing either the PKC or Rho responses in rat primary vascular smooth muscle cell (VSMC) culture, expressing low levels of endogenous AT1R (between 25–50 fmol/mg) (Figure 4, Table 6).
(§2) The coding regions of the PKC-c1b sensor, PKN-RBD-RlucII, and rGFPcaax were PCR-amplified and subcloned into the KpnI/XhoI sites of the pENTR3C vector (Invitrogen), respectively. These were then transferred into the adenoviral expression vector pAd/CMV/V5-DEST (Invitrogen), via gateway cloning (pAD-CMV-PKC-c1b, pAD-CMV-PKN-RBD-RLucII, and pAD-CMV-rGFPcaax). Viruses containing the sensor codes were generated following a previously outlined process.[49] […] The following day, cells were transfected with 4 µg of PacI-digested pAd5-CMVsensors using Lipofectamine 2000 (Invitrogen). After 7–10 days post-transfection, mature virus particles were gleaned via the collection of cells and media, which then underwent multiple cycles of freezing and thawing, followed by centrifugation. The harvested virus was amplified by re-infection on 100-mm dishes of confluent HEK293A cells, and harvested 48-72 h later. Viral titers were determined by serial dilution of adenovirus stock and subsequent infection of HEK293A cells in 96-well plates. 36 h after infection, cells were stained using an anti-hexon antibody (ab8249; Abcam), and hexon-expressing cells were tallied via fluorescence microscopy. The virus was then stored at −80°C. After this, rat VSMCs (between the 13th to 15th passages) were seeded at a density of 20,000 cells in each well of white 96-well plates 24 h before transduction with the viral vector. The cells were then transduced with the PKC sensor-adenovirus (3 μL per well) or Rho sensor (1 μL each per well of PKN-RBD-RLucII-adnovirus and rGFP-caax adenovirus). After 24 h, the medium was replaced. 48 h post-viral transduction, the cells were thoroughly washed with Tyrode’s buffer. Finally, BRET assays were carried out as detailed below.
(§3) On the day of the experiment, each well was washed with 80 µL of Tyrode’s buffer (140 mM NaCl, 2.7 mM KCl, 1 mM CaCl2, 12 mM NaHCO3, 5.6 mM D-glucose, 0.5 mM MgCl2, 0.37 mM NaH2PO4, 25 mM Hepes (pH 7.4)). This was followed by incubation for 1 h in Tyrode’s buffer at room temperature. For the Gαq, β-arrestin-2, and PKC biosensors used in HEK293 cells, coelenterazine 400A (at a final concentration of 5 μM) was added 10 min before stimulation. Cells were then stimulated with increasing doses of the indicated ligand, and BRET signals were measured using a Tristar2 (Berthold) microplate reader 10 min later. For the PKC and Rho biosensors in VSMCs, and the Rho biosensor in ΔG12/13 cells, cells were similarly stimulated with ligands for 1 min, 1 min 30 s, and 3 min, respectively, before BRET measurement. […] BRET signals were then measured using a Synergy2 (BioTek) microplate reader. The applied filter set was 410/80 nm and 515/30 nm, designed to detect the light emissions of RlucII (Renilla luciferase) (donor) and rGFP (acceptor), respectively.
In general terms: In BRET a luciferase serves as donor, and the signal depends on an acceptor being close.

The target of data set [3] is T1, endogenous AT1R. Nature of the data set: Rho BRET sensor in rat primary VSMC with endogenous AT1R. Conditions: for Emax Rho in VSMCs (% AngII): Rho sensor, for 12 and TRV027 response at 10 μM; for EC50: adenoviral Rho BRET sensor, 1 min 30 s stimulation, mean ± SEM of at least three to five independent experiments, read-out: EC50 Rho in VSMCs. The format is cell-based.
From the text: as §1, §2, §3

One may read the EC50 as the concentration giving half of the maximal effect. Turning to `CC[C@H](C)[C@H](NC(=O)[C@H](Cc1ccc(O)cc1)NC(=O)[C@@H](NC(=O)[C@H](CCCNC(=N)N)NC(=O)[C@@H](N)CC(=O)O)C(C)C)C(=O)N[C@@H](Cc1c[nH]cn1)C(=O)N1CCC[C@H]1C(=O)N[C@@H](Cc1ccc(OCc2ccccc2)cc1)C(=O)O` [compound 12], the half-life at 182 µM in data set [1] was found to be 32 ± 3 min. In data set [2], the “Emax PKC in VSMCs (% AngII)” value was 13 % AngII and the EC50 was greater than 10000 nM. In data set [3], the “Emax Rho in VSMCs (% AngII)” value came out at 12 % AngII and the EC50 is greater than 10000 nM.
For `CC[C@H](C)[C@H](NC(=O)[C@H](Cc1ccc(O)cc1)NC(=O)[C@@H](NC(=O)[C@H](CCCNC(=N)N)NC(=O)[C@@H](N)CC(=O)O)C(C)C)C(=O)N[C@@H](Cc1c[nH]cn1)C(=O)N1CCC[C@H]1C(=O)N[C@@H](Cc1ccc(OC)cc1)C(=O)O` [compound 11], in data set [1], the half-life at 182 µM was 33 ± 4 min. The “Emax PKC in VSMCs (% AngII)” value in data set [2] came out at 104 % AngII. Also, the values for the EC50 in data set [2] (SEM) and in data set [3] (SEM) were 79.8 ± 17.7 nM and 39.1 ± 11 nM, respectively. The “Emax Rho in VSMCs (% AngII)” value in data set [3] was 92 % AngII.
